Experimental data: the Deep4Chem optical property database
One block for each molecule: values may come before it.

Experiment: solvent given as SMILES

- absorption maximum (in ClC(Cl)Cl): 727 nm
SMILES: CC(C)C1=c2c(c3[nH]cc(C(C)C)c3c3ccccc23)=[N+]2C1=Cc1c(C(C)C)c3c4ccccc4c4c(C(C)C)c[nH]c4c3n1[B-]2(F)F

- absorption maximum (in ClC(Cl)Cl): 360 nm
SMILES: CC(=C(C#Cc1ccccc1)C#Cc1ccccc1)c1ccc(C(C)=C(C#Cc2ccccc2)C#Cc2ccccc2)cc1

- absorption maximum (in CCO): 377 nm
SMILES: O=c1c2cc(F)c(O)cc2sc2cc(O)c(F)cc12

- absorption maximum (in CC#N): 636 nm
SMILES: F[B-]1(F)n2c(c(-c3cccs3)c3c2-c2ccccc2CC3)C=C2C(c3cccs3)=C3CCc4ccccc4C3=[N+]21

- absorption maximum (in CO): 300 nm
SMILES: Oc1cccc(-c2nc(-c3ccccc3)c(-c3ccccc3)[nH]2)c1

SMILES: CCC1=C(C)C2=C(C)c3cccn3[B-](F)(F)[N+]2=C1C
- absorption maximum (in C1CCCCC1): 504 nm
- absorption maximum (in CC(C)=O): 495 nm
- absorption maximum (in CCO): 497 nm
- absorption maximum (in CCOC(C)=O): 496 nm
- absorption maximum (in CO): 495.5 nm
- absorption maximum (in OCC(F)(F)F): 492 nm

- absorption maximum (in ClCCl): 329 nm
SMILES: c1ccc2c(c1)-c1ccccc1[Si]21c2ccccc2-c2cc3c(cc21)-c1ccccc1[Si]31c2ccccc2-c2ccccc21

- absorption maximum (in ClC(Cl)Cl): 567 nm
SMILES: CCCCCCCCN1C(=O)c2ccc3c4c(-c5ccc6c7ccccc7n(-c7ccccc7)c6c5)cc5c6c(cc(-c7ccc8c9ccccc9n(-c9ccccc9)c8c7)c(c7ccc(c2c37)C1=O)c64)C(=O)N(CCCCCCCC)C5=O

- absorption maximum (in C1CCCCC1): 389 nm
SMILES: COc1ccc2c3c(c4ccc(OC)cc4c2c1)C(C)(C)c1cc(-c2ccccc2)ccc1-3

SMILES: C1=[N+](c2ccccc2)[B-](c2ccccc2)(c2ccccc2)Oc2c1ccc1c3c(ccc21)C=[N+](c1ccccc1)[B-](c1ccccc1)(c1ccccc1)O3
- absorption maximum (in Cc1ccccc1): 536 nm
- absorption maximum (in ClCCl): 529 nm

- absorption maximum (in CC#N): 380 nm
SMILES: CC(C)c1ccc(-c2nc(-c3ccccc3)c3ccccn23)cc1

- absorption maximum (in C1CCOC1): 397 nm
SMILES: CCCCCCOc1cc(C=C2c3ccccc3-c3ccccc32)c(OCCCCCC)cc1C=C1c2ccccc2C=Cc2ccccc21

- absorption maximum (in C1CCOC1): 437 nm
SMILES: c1ccc2c(P(c3c4ccccc4cc4ccccc34)c3c4ccccc4cc4ccccc34)c3ccccc3cc2c1

- absorption maximum (in ClCCl): 401 nm
SMILES: F[B-]1(F)OC(C#Cc2ccccc2)=CC(c2ccccc2)=[O+]1

- absorption maximum (in ClCCl): 438 nm
SMILES: CCCCN(CCCC)c1ccc(C#Cc2cc(C#Cc3ccc(N(CCCC)CCCC)cc3)c(C#Cc3c(F)c(F)c(F)c(F)c3F)cc2C#Cc2c(F)c(F)c(F)c(F)c2F)cc1

SMILES: COc1ccc2c(c1)c1cc(OC)ccc1n2-c1ccc2c(c1)-c1cc(-n3c4ccc(OC)cc4c4cc(OC)ccc43)ccc1P2(=O)c1ccccc1
- absorption maximum (in Cc1ccccc1): 369 nm

- absorption maximum (in C1COCCO1): 442 nm
SMILES: O=C1OC(c2ccccc2)=C/C1=C\c1ccccc1

SMILES: COc1cc(N(c2ccccc2)c2ccc(C=C(C#N)C#N)c(OC)c2)ccc1C=C(C#N)C#N
- absorption maximum (in C1COCCO1): 464 nm
- absorption maximum (in CC#N): 477 nm
- absorption maximum (in CC(C)=O): 470 nm
- absorption maximum (in CCOC(C)=O): 468 nm
- absorption maximum (in CN(C)C=O): 469 nm
- absorption maximum (in CO): 471 nm
- absorption maximum (in Cc1ccccc1): 471 nm
- absorption maximum (in ClC(Cl)Cl): 480 nm
- absorption maximum (in ClCCl): 479 nm

SMILES: CCCCCCC(CCCCCC)N1C(=O)c2cccc3c(-c4ccccc4)ccc(c23)C1=O
- absorption maximum (in CCCCCC): 342.2 nm
- absorption maximum (in CCCCCCCCCCCCCC): 343.4 nm
- absorption maximum (in CCCCCCCCCCCO): 353.4 nm
- absorption maximum (in CCCCO): 355.2 nm
- absorption maximum (in CN(C)C=O): 355.2 nm
- absorption maximum (in Cc1ccccc1): 346.8 nm
- absorption maximum (in ClC(Cl)Cl): 355.4 nm

- absorption maximum (in ClC(Cl)Cl): 350 nm
SMILES: CC(C)(C)c1ccc2c(c1)oc1nc3oc4ccc(-n5c6ccccc6c6ccccc65)cc4c3cc12

- absorption maximum (in CC#N): 392 nm
SMILES: COc1ccc(-c2nc3c([nH]2)C2=CC(=O)S[C@]2(C)[C@@]2(C)SC(=O)C=C32)cc1

- absorption maximum (in ClC(Cl)Cl): 328 nm
SMILES: C(#Cc1ccc(C#Cc2ccccc2)cc1)c1ccccc1

- absorption maximum (in ClCCl): 378 nm
SMILES: CN(C)c1ccc(-c2cc(-c3ccc(N(C)C)cc3)ncn2)cc1

- absorption maximum (in ClC(Cl)Cl): 488 nm
SMILES: CC(C)c1cccc(C(C)C)c1-n1c(=O)c2cc3nc(-c4ccccc4)c4cc5c(=O)n(-c6c(C(C)C)cccc6C(C)C)c(=O)c6cc7nc(-c8ccccc8)c8cc(c1=O)c2c1c3c4c(c65)c7c81

- absorption maximum (in ClC(Cl)Cl): 347 nm
SMILES: CC(C)(C)c1ccc2oc3nc4oc5ccc(N6c7ccccc7Oc7ccccc76)cc5c4cc3c2c1

- absorption maximum (in CC#N): 337 nm
- absorption maximum (in CCCCCCCCCCCCCCCC): 325 nm
- absorption maximum (in CO): 345 nm
- absorption maximum (in ClC(Cl)Cl): 336 nm
- absorption maximum (in c1ccccc1): 334 nm
SMILES: O=C1c2ccccc2NC(c2ccccc2)N1Cc1ccccc1 (stereo not drawn)

- absorption maximum (in C1CCOC1): 377 nm
SMILES: c1ccc2c(c1)-c1ccccc1C21c2ccccc2-c2c1c1c3ccccc3ccc1c1ccccc21

- absorption maximum (in C1CCCCC1): 427 nm
- absorption maximum (in CC#N): 451 nm
- absorption maximum (in CCO): 458 nm
- absorption maximum (in c1ccccc1): 440 nm
SMILES: Nc1cccc2c1-c1ccccc1C2=O

- absorption maximum (in CCOC(C)=O): 448 nm
SMILES: CCN1CCN(c2ccc(/N=N/c3ccc([N+](=O)[O-])cc3)cc2)CC1

- absorption maximum (in C1CCOC1): 327 nm
SMILES: F[B-]1(F)Oc2ccccc2-c2n(-c3ccc(C(F)(F)F)cc3)c(-c3ccccc3)c(-c3ccccc3)[n+]21

- absorption maximum (in C1CCOC1): 360 nm
SMILES: CC(C)(C)c1ccc(-c2c(-c3cccc(-n4c5ccccc5c5ccccc54)c3)c(C#N)c(-c3cccc(-n4c5ccccc5c5ccccc54)c3)c(-c3ccc(C(C)(C)C)cc3)c2-c2ccc(C(C)(C)C)cc2)cc1

- absorption maximum (in C1COCCO1): 281.6 nm
- absorption maximum (in CC#N): 279.69 nm
SMILES: N#Cc1cc2ccccc2[nH]1

- absorption maximum (in CC#N): 318 nm
SMILES: COc1ccccc1-n1nc(C#N)c(N2CCCC2)n1

- absorption maximum (in C1COCCO1): 379 nm
- absorption maximum (in CC#N): 379 nm
- absorption maximum (in CCO): 381 nm
- absorption maximum (in CO): 382 nm
- absorption maximum (in ClCCCl): 380 nm
- absorption maximum (in O): 386 nm
SMILES: Cc1cccc2nc3c(=O)[nH]c(=O)[nH]c3nc12

SMILES: CC(C)c1cc(C(C)C)c(B2c3ccccc3Oc3cc(N4c5ccccc5C(C)(C)c5ccccc54)ccc32)c(C(C)C)c1
- absorption maximum (in Cc1ccccc1): 436 nm

- absorption maximum (in ClC(Cl)Cl): 329.71 nm
SMILES: CC(C)(C)c1ccc(-c2cc3c4c(c2)CCc2cc(-c5ccc(C(C)(C)C)cc5)cc(c2-4)CC3)cc1

- absorption maximum (in C1CCOC1): 395 nm
SMILES: CCCCOc1cc(C=C2c3ccccc3-c3ccccc32)c(OCCCC)cc1C=C1c2ccccc2C=Cc2ccccc21

- absorption maximum (in CC#N): 344 nm
SMILES: c1ccc2c(c1)nc1ccccn12

- absorption maximum (in ClC(Cl)Cl): 540 nm
SMILES: C(#Cc1ccccc1)C(C#Cc1ccccc1)=c1c2ccccc2c(=C(C#Cc2ccccc2)C#Cc2ccccc2)c2ccccc12

- absorption maximum (in ClCCl): 371 nm
SMILES: C(#Cc1c(C#Cc2ccccc2)c(C#Cc2ccccc2)c(C#Cc2ccccc2)c(C#Cc2ccccc2)c1C#Cc1ccccc1)c1ccccc1

- absorption maximum (in ClC(Cl)Cl): 349 nm
SMILES: C(#Cc1ccccc1)C(C#Cc1ccccc1)=Cc1cccc(C=C(C#Cc2ccccc2)C#Cc2ccccc2)c1

- absorption maximum (in C1CCOC1): 350 nm
- absorption maximum (in C1COCCO1): 354 nm
- absorption maximum (in CC#N): 352 nm
- absorption maximum (in CCCO): 360 nm
- absorption maximum (in CCO): 359 nm
- absorption maximum (in CN(C)C=O): 362 nm
- absorption maximum (in CO): 357 nm
- absorption maximum (in CS(C)=O): 365 nm
- absorption maximum (in ClC(Cl)Cl): 355 nm
- absorption maximum (in ClCCl): 353 nm
SMILES: COc1ccc(/C=C/C(=O)c2ccccc2O)cc1OC

- absorption maximum (in C1CCCCC1): 335 nm
- absorption maximum (in C1COCCO1): 335 nm
- absorption maximum (in CC#N): 332 nm
- absorption maximum (in CC(C)(C)O): 339 nm
- absorption maximum (in CC(C)O): 339 nm
- absorption maximum (in CCCCCC): 334 nm
- absorption maximum (in CCCCO): 339 nm
- absorption maximum (in CCOC(C)=O): 335 nm
- absorption maximum (in CN(C)C=O): 337 nm
- absorption maximum (in CO): 340 nm
- absorption maximum (in ClCCl): 338 nm
- absorption maximum (in O): 341 nm
SMILES: O=C1Nc2ccccc2/C1=C/C(=O)c1ccc(Cl)cc1

- absorption maximum (in ClCCl): 316 nm
SMILES: Cc1nc(-c2cc(C(F)(F)F)ccc2O)n2c1CCCC2

- absorption maximum (in ClCCl): 529 nm
SMILES: CCC1=C(C)C2=C(/C=C/c3ccc(OC)cc3)c3c(C)c(CC)c(C)n3[B-](F)(F)[N+]2=C1C

SMILES: CCn1c2ccccc2c2cc(C#Cc3cc(C#Cc4ccc5c(c4)c4ccccc4n5CC)nc(N4CCCCC4)n3)ccc21
- absorption maximum (in C1CCOC1): 393 nm
- absorption maximum (in CCOC(C)=O): 391 nm
- absorption maximum (in CN(C)C=O): 398 nm
- absorption maximum (in Cc1ccccc1): 395 nm
- absorption maximum (in ClCCl): 397 nm

- absorption maximum (in O): 506 nm
SMILES: CC(=O)OCOC(=O)CN(CC(=O)OCOC(C)=O)c1ccccc1OCCOc1cc(NC(=O)c2ccc3c(c2)C(=O)OC32c3cc(Cl)c(OC(C)=O)cc3Oc3cc(OC(C)=O)c(Cl)cc32)ccc1N(CC(=O)OCOC(C)=O)CC(=O)OCOC(C)=O

- absorption maximum (in CCO): 637 nm
- absorption maximum (in CO): 634 nm
- absorption maximum (in CS(C)=O): 643 nm
- absorption maximum (in O): 632 nm
SMILES: CN1/C(=C/C=C(/C=C/C2=[N+](C)c3ccccc3C2(C)C)c2ccc(C(F)(F)F)cc2)C(C)(C)c2ccccc21

- absorption maximum (in ClCCl): 386 nm
SMILES: COc1ccc(C#Cc2c(C#Cc3ccc(OC)cc3)c(C#Cc3ccc(OC)cc3)c(C#Cc3ccc(OC)cc3)c(C#Cc3ccc(OC)cc3)c2C#Cc2ccc(OC)cc2)cc1

- absorption maximum (in CC#N): 419 nm
SMILES: COC(=O)/C=C/c1sc(-c2ccc(N(C)C)cc2)cc1N

- absorption maximum (in CC#N): 285 nm
- absorption maximum (in CO): 285 nm
SMILES: C1=Cc2ccccc2Cc2ccccc21

- absorption maximum (in C1CCOC1): 358 nm
SMILES: Cc1cc(C)c(B(c2ccc3c(c2)c2cc(B(c4c(C)cc(C)cc4C)c4c(C)cc(C)cc4C)ccc2n3-c2ccc(C(=C(c3ccccc3)c3ccccc3)c3ccccc3)cc2)c2c(C)cc(C)cc2C)c(C)c1

- absorption maximum (in ClCCl): 518 nm
SMILES: CC1=CC(C)=[N+]2C1=C(c1c(-c3ccccn3)nc3ccccn13)c1c(C)cc(C)n1[B-]2(F)F

- absorption maximum (in C1CCOC1): 393 nm
- absorption maximum (in CC#N): 394.5 nm
- absorption maximum (in CCO): 397 nm
- absorption maximum (in CN(C)C=O): 396.5 nm
- absorption maximum (in CO): 397 nm
- absorption maximum (in CS(C)=O): 398.5 nm
SMILES: CSc1sc(C(N)=O)c2nnn(C)c(=O)c12

SMILES: CC1(C)c2cccc(-c3nc(-c4ccccc4)nc(-c4ccccc4)n3)c2Oc2c(-n3c4ccccc4c4ccccc43)cccc21
- absorption maximum (in Cc1ccccc1): 341 nm

- absorption maximum (in ClCCl): 337 nm
SMILES: CCOC(=O)c1c(-c2cc3ccc(OC)cc3oc2=O)nn(-c2ccccc2)c1C(=O)OCC

SMILES: Fc1c(F)c(-n2c3ccccc3c3ccccc32)c(F)c(F)c1-c1nnc(-c2ccccc2)o1
- absorption maximum (in Cc1ccccc1): 344 nm
